Results published in patent US20260297083A1, “SUBSTITUTED ACETYLENE COMPOUND DERIVATIVES AND THEIR PHARMACEUTICAL USE” (AVELOS THERAPEUTICS INC., priority 2023, published 2026).

target: T1, Polθ polymerase domain (amino acids 1792-2590) (Homo sapiens, UniProt O75417); experiment: Picogreen assay of Polθ polymerase activity; format: biochemical; conditions: 12-point concentration response, 90 minutes incubation at room temperature, 8 nM Polθ in 2×polymerase mixture, read-out: PolQ IC50
T1 construct: 10×Histidine-SUMO (N, cleaved yes); made in house; host or cells: E. coli
T1 sequence (O75417 1792-2590): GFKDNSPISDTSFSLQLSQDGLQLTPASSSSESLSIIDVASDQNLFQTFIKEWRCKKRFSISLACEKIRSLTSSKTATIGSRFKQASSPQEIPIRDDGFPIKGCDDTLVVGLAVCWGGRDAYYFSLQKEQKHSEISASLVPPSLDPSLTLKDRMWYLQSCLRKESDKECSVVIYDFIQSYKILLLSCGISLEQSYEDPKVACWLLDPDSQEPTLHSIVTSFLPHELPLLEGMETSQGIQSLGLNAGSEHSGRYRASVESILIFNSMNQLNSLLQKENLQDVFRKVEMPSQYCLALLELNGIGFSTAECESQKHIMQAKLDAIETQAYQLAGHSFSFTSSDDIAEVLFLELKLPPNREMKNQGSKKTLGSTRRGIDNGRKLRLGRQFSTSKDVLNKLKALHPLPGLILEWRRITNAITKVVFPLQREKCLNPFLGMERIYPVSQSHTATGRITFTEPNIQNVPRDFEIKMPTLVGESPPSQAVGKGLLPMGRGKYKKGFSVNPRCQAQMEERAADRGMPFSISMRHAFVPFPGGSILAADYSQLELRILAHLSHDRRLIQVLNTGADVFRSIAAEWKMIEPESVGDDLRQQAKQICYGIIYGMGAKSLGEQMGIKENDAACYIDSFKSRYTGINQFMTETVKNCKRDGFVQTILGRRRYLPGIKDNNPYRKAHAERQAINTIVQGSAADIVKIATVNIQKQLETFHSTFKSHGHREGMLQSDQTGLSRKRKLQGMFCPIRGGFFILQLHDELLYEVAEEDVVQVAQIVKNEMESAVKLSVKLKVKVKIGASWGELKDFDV
Description: The DNA sequence of the polQ gene (Genebank ID #NM 199420.4) was chemically synthesized. The DNA sequence encoding the polymerase domain (amino acids 1792-2590) was subcloned into an E. coli expression plasmid, resulting in the fusion of 10×Histidine-SUMO tag at the N terminus of the polymerase domain.
The protein was expressed in E. coli. and purified using a 2-step IMAC (immobilized metal chelate affinity chromatography) procedure. Briefly stated, the overexpressed E. coli lysate was subjected to Ni-NTA purification, and an N-terminal tag was digested by a SUMO protease. Then, the excised fragment of 10×Histidine-SUMO tag was removed using Ni-NTA beads. The resulting protein was used for the Picogreen assay, as described below.
The methods of DNA complex preparation were slightly modified from the protocol previously reported (Zatreanu et al., 2021, Nature Communications, 12:3636). Briefly stated, polθ substrate was prepared by mixing Oligo1 (5′-GCG GCT GTC ATA AG-3′) and Oligo2 (5′-GCTACATTGACAATGGCATCAAATCTCAGATTGCGTCTTATGACAGCCGCG-3′) in an annealing buffer (20 mM Tris-Cl, pH 7.5, 50 mM NaCl) to the final concentration of 22 uM and 20 uM, respectively. The Polθ product was prepared by mixing Oligo3 (5′-CGCGGCTGTCATAAGACGCAATCTGAGATTTGATGCCATTGTCAATGTAGC-3′) and Oligo2 (5′-GCTACATTGACAATGGCATCAAATCTCAGATTGCGTCTTATGACAGCCGCG-3′) to the final concentration of 20 uM. The polθ product was used for the top signal control in the Picogreen assay. Both substrate and product were heated to 95° C. […] and cooled slowly to room temperature.
To evaluate the ability of test compounds to inhibit the activity of polθ in vitro, a Picogreen assay was performed to measure polθ IC50 (nM).
The reactions were performed at room temperature in an assay buffer (25 mM Tris-HCl, pH 7.5, 12.5 mM NaCl, 0.5 mM MgCl2, 5% (v/v) glycerol, 0.01% (v/v) Triton X-100, 0.01% (w/v) Bovine serum albumin, 1 mM DTT). Thirty microliters of 2×polymerase mixture (8 nM Polθ enzyme in an assay buffer) were distributed to 96 well plates, test compounds were prepared by dilution in 100% DMSO to obtain the correct dose range for a 12-point concentration response and 1 μl was dispensed into each well, and then 30 microliters of 2×substrate mix (100 nM DNA and 40 uM dNTPs in an assay buffer) was added. After 90 minutes of incubation, the reaction was stopped and DNA was stained by adding 40 microliters of Picogreen solution (1:80 dilution of Picogreen, Invitrogen, Cat #P7581, 25 mM Tris-HCl, pH 7.5, 10 mM EDTA, pH 7.5).
The fluorescence intensity was measured at excitation/emission=485 nm/520 nm using an Ensight plate reader (Perkin Elmer). The data was analyzed by GraphPad Prism software (Version 8.4.3) to calculate IC50.

Compared with `Cc1cc(C(F)(F)F)cc(N2[C@H](C(=O)N(CC#Cc3cnc(N4C[C@H](C)N(C(C)C)[C@@H](C)C4)cn3)c3ccc(F)c(C)c3)CCS2(=O)=O)n1` (stereo in doubt) [compound 54], `Cc1cc(C(F)(F)F)cc(N2[C@H](C(=O)N(CC#Cc3cnc(NC(C)C)cn3)c3ccc(F)c(C)c3)CCS2(=O)=O)n1` [compound 36] is lower in IC50: over 101 nM for the first, 1 to 50 nM for the second. The second is the more potent here.

`Cc1cccc(N(CC#Cc2ccc(N)nn2)C(=O)[C@@H]2CCC(=O)N2c2cc(C(F)(F)F)cc(C)n2)c1` [compound 1] and `Cc1cc(C(F)(F)F)cc(N2C(=O)CC[C@H]2C(=O)N(CC#Cc2ccc(N)nn2)c2ccc(F)c(C)c2)n1` [compound 5] fall in the same range of IC50: 1 to 50 nM for the first, 1 to 50 nM for the second.

`Cc1cc(C(F)(F)F)cc(N2C(=O)CC[C@H]2C(=O)N(CC#Cc2ccc(N)nn2)c2ccc(F)c(C)c2F)n1` [compound 2] and `Cc1cc(C(F)(F)F)cc(N2C(=O)CC[C@H]2C(=O)N(CC#Cc2ccc(N)nn2)c2ccc(F)c(Cl)c2F)n1` [compound 4] fall in the same range of IC50: 1 to 50 nM for the first, 1 to 50 nM for the second.

`Cc1cc(C(F)(F)F)cc(N2C(=O)CC[C@H]2C(=O)N(CC#Cc2ccc(N)nn2)c2ccc(F)c(Cl)c2)n1` [compound 3] and `Cc1cc(C(F)(F)F)cc(N2C(=O)CC[C@H]2C(=O)N(CC#Cc2cnc(N)cn2)c2ccc(F)c(C)c2)n1` [compound 6] fall in the same range of IC50: 1 to 50 nM for the first, 1 to 50 nM for the second.

`Cc1cc(C(F)(F)F)cc(N2C(=O)CC[C@H]2C(=O)N(CC#Cc2cccc(=O)[nH]2)c2ccc(F)c(C)c2)n1` [compound 7] and `Cc1cc(C(F)(F)F)cc(N2C(=O)CC[C@H]2C(=O)N(CC#Cc2ccc(F)cn2)c2ccc(F)c(C)c2)n1` [compound 8] fall in the same range of IC50: 1 to 50 nM for the first, 1 to 50 nM for the second.

First: Cc1cc(C(F)(F)F)cc(N2C(=O)CC[C@H]2C(=O)N(CC#Cc2cncn2C)c2ccc(F)c(C)c2)n1 [compound 9]
Second: Cc1cc(C(F)(F)F)cc(N2C(=O)CC[C@H]2C(=O)N(CC#Cc2ccc(C(N)=O)nc2)c2ccc(F)c(C)c2)n1 [compound 12]
The IC50 of the first is lower: 1 to 50 nM for the first, over 101 nM for the second. The first is the more potent here.

`Cc1cc(C(F)(F)F)cc(N2C(=O)CC[C@H]2C(=O)N(CC#Cc2cnc(N3CCOCC3)cn2)c2ccc(F)c(C)c2)n1` [compound 10] and `CCN1CCN(c2cnc(C#CCN(C(=O)[C@@H]3CCC(=O)N3c3cc(C(F)(F)F)cc(C)n3)c3ccc(F)c(C)c3)cn2)CC1` [compound 11] fall in the same range of IC50: 1 to 50 nM for the first, 1 to 50 nM for the second.

`CCN1CCN(CC#CCN(C(=O)[C@@H]2CCC(=O)N2c2cc(C(F)(F)F)cc(C)n2)c2ccc(F)c(C)c2F)CC1` [compound 13] and `Cc1cc(C(F)(F)F)cc(N2C(=O)CC[C@H]2C(=O)N(CC#CCN2CCOCC2)c2ccc(F)c(C)c2F)n1` [compound 14] fall in the same range of IC50: 1 to 50 nM for the first, 1 to 50 nM for the second.

`Cc1cc(C(F)(F)F)cc(N2C(=O)CC[C@H]2C(=O)N(CC#CCN2CCN(c3cnccn3)CC2)c2ccc(F)c(C)c2F)n1` [compound 15] and `Cc1cc(C(F)(F)F)cc(N2C(=O)CC[C@H]2C(=O)N(CC#CCN2CCN(c3ncccn3)CC2)c2ccc(F)c(C)c2F)n1` [compound 16] fall in the same range of IC50: 1 to 50 nM for the first, 1 to 50 nM for the second.

First: Cc1cc(C(F)(F)F)cc(N2[C@H](C(=O)N(CC#Cc3cnc(N)cn3)c3ccc(F)c(C)c3F)CCS2(=O)=O)n1 [compound 17]
Second: Cc1cc(C(F)(F)F)cc(N2[C@@H](C(=O)N(CC#Cc3cnc(N)cn3)c3ccc(F)c(C)c3F)CCS2(=O)=O)n1 [compound 31]
The IC50 of the first is lower: 1 to 50 nM for the first, over 101 nM for the second.

`Cc1cc(C(F)(F)F)cc(N2[C@H](C(=O)N(CC#Cc3ccc(N)nn3)c3ccc(F)c(C)c3)CCS2(=O)=O)n1` [compound 18] and `Cc1cc(C(F)(F)F)cc(N2[C@H](C(=O)N(CC#Cc3ccc(C(N)=O)nn3)c3ccc(F)c(C)c3)CCS2(=O)=O)n1` [compound 29] fall in the same range of IC50: 1 to 50 nM for the first, 1 to 50 nM for the second.

`Cc1cc(C(F)(F)F)cc(N2[C@H](C(=O)N(CC#Cc3ccc(NC(C)C)nn3)c3ccc(F)c(C)c3)CCS2(=O)=O)n1` [compound 20] and `CC(=O)Nc1ccc(C#CCN(C(=O)[C@@H]2CCS(=O)(=O)N2c2cc(C(F)(F)F)cc(C)n2)c2ccc(F)c(C)c2)nn1` [compound 22] fall in the same range of IC50: 1 to 50 nM for the first, 1 to 50 nM for the second.

`Cc1cc(C(F)(F)F)cc(N2[C@H](C(=O)N(CC#Cc3ccc(NC(C)C)nn3)c3ccc(F)c(C)c3F)CCS2(=O)=O)n1` [compound 21] and `Cc1ccc(F)c(N(CC#Cc2cnc(NC(C)C)cn2)C(=O)[C@@H]2CCS(=O)(=O)N2c2cc(C(F)(F)F)cc(C)n2)c1` [compound 37] fall in the same range of IC50: 1 to 50 nM for the first, 1 to 50 nM for the second.

`Cc1cc(C(F)(F)F)cc(N2[C@H](C(=O)N(CC#Cc3ccc(N4CCOCC4)nn3)c3ccc(F)c(C)c3)CCS2(=O)=O)n1` [compound 23] and `Cc1cc(C(F)(F)F)cc(N2[C@H](C(=O)N(CC#Cc3cnc(N4CCOCC4)cn3)c3ccc(F)c(C)c3)CCS2(=O)=O)n1` [compound 39] fall in the same range of IC50: 1 to 50 nM for the first, 1 to 50 nM for the second.

`CCN1CCN(c2ccc(C#CCN(C(=O)[C@@H]3CCS(=O)(=O)N3c3cc(C(F)(F)F)cc(C)n3)c3ccc(F)c(C)c3)nn2)CC1` [compound 24] and `COc1ccc(C#CCN(C(=O)[C@@H]2CCS(=O)(=O)N2c2cc(C(F)(F)F)cc(C)n2)c2ccc(F)c(C)c2)nn1` [compound 27] fall in the same range of IC50: 1 to 50 nM for the first, 1 to 50 nM for the second.

`CCN(CC)c1ccc(C#CCN(C(=O)[C@@H]2CCS(=O)(=O)N2c2cc(C(F)(F)F)cc(C)n2)c2ccc(F)c(C)c2)nn1` [compound 25] and `Cc1cc(C(F)(F)F)cc(N2[C@H](C(=O)N(CC#Cc3ccc(OC(F)F)nn3)c3ccc(F)c(C)c3)CCS2(=O)=O)n1` [compound 28] fall in the same range of IC50: 1 to 50 nM for the first, 1 to 50 nM for the second.

`Cc1cc(C(F)(F)F)cc(N2[C@H](C(=O)N(CC#Cc3ccc(=O)[nH]n3)c3ccc(F)c(C)c3)CCS2(=O)=O)n1` [compound 26] and `Cc1cc(C(F)(F)F)cc(N2[C@H](C(=O)N(CC#Cc3cnc(N)cn3)c3ccc(F)c(C)c3)CCS2(=O)=O)n1` [compound 30] fall in the same range of IC50: 1 to 50 nM for the first, 1 to 50 nM for the second.

`Cc1ccc(F)c(N(CC#Cc2cnc(N)cn2)C(=O)[C@@H]2CCS(=O)(=O)N2c2cc(C(F)(F)F)cc(C)n2)c1` [compound 33] and `Cc1ccc(F)c(N(CC#Cc2cnc(N3CCOCC3)cn2)C(=O)[C@@H]2CCS(=O)(=O)N2c2cc(C(F)(F)F)cc(C)n2)c1` [compound 40] fall in the same range of IC50: 1 to 50 nM for the first, 1 to 50 nM for the second.

`CC(=O)Nc1cnc(C#CCN(C(=O)[C@@H]2CCS(=O)(=O)N2c2cc(C(F)(F)F)cc(C)n2)c2ccc(F)c(C)c2)cn1` [compound 34] and `Cc1cc(C(F)(F)F)cc(N2[C@H](C(=O)N(CC#Cc3cnc(NC(N)=O)cn3)c3ccc(F)c(C)c3)CCS2(=O)=O)n1` [compound 35] fall in the same range of IC50: 1 to 50 nM for the first, 1 to 50 nM for the second.

First: Cc1cc(C(F)(F)F)cc(N2[C@H](C(=O)N(CC#Cc3cnc(N4CC5(COC5)C4)cn3)c3ccc(F)c(C)c3)CCS2(=O)=O)n1 [compound 38]
Second: Cc1ccc(F)c(N(CC#Cc2cnc(N3CCOCC3)cn2)C(=O)[C@H]2CCS(=O)(=O)N2c2cc(C(F)(F)F)cc(C)n2)c1 [compound 41]
The IC50 of the first is lower: 1 to 50 nM for the first, over 101 nM for the second.
